# Measurements: patent publication US20260042764A1, “COMPOSITIONS AND METHODS FOR INHIBITION OF KRAS” (TheRas, Inc., priority 2022, published 2026)
# Legend:
# [1] = molecular target: T1, Avi-KRAS G12V (1-169) GppNHp/RAF1 RBD-3xFLAG (52-151) (Homo sapiens, UniProt P01116, G12V); assay: Raf1-KRAS G12V-GppNHP disruption HTRF assay (Biological Example 1); assay type: binding
# T1 construct: Avi-KRAS G12V (1-169)
# Summary of the method: (§1)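 HTRF PPI disruption; buffer 50 mM Tris pH 7.5, 100 mM NaCl, 5 mM MgCl2, 0.1% BSA, 0.01% Tween, 10% DMSO. Protein mix 1 h RT shaking, reagent mix 1 h RT shaking. Data as % activity vs DMSO (100%).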
# [2] = molecular target: T2, Avi-KRAS G12D (1-169) GppNHp/RAF1 RBD-3xFLAG (52-151) (Homo sapiens, UniProt P01116, G12D); assay: Raf1-KRAS G12D-GppNHP disruption HTRF assay (Biological Example 1); assay type: binding
# T2 construct: Avi-KRAS G12D (1-169)
# Summary of the method: as §1
# GP2d cells (KRAS G12D) = assay: Cell-based pERK HTRF assay in GP2d cell (Biological Example 2); conditions: GP2d, GP2d (KRAS G12D) cells, pERK HTRF
# Summary of the method: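 HTRF read-out of pERK (excitation 320 nm, emission 615 nm) after lysates sat 4–24 h at room temperature with Eu cryptate and d2 antibodies.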
# SW620 cells (KRAS G12V) = assay: Cell-based pERK HTRF assay in SW620 cell (Biological Example 4); conditions: Homo sapiens, SW-620, SW620 (KRAS G12V) cells, pERK HTRF
# Summary of the method: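 Read-out: HTRF pERK signal (excitation 320 nm, emission 615 nm) from lysates of SW620 cells after 4 h compound exposure. Dose range was 9 points, half-log steps from 1 μM, in 0.25% DMSO; antibody incubation ran 4–24 h at room temperature.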
# [3] = molecular target: T3, Avi-KRAS G12R (1-169) GppNHp/RAF1 RBD-3xFLAG (52-151) (Homo sapiens, UniProt P01116, G12R); assay: Raf1-KRAS G12R-GppNHP disruption HTRF assay (Biological Example 1); assay type: binding
# T3 construct: Avi-KRAS G12R (1-169)
# Summary of the method: as §1
# [4] = molecular target: T4, Avi-KRAS WT (1-169) GppNHp/RAF1 RBD-3xFLAG (52-151) (Homo sapiens, UniProt P01116); assay: Raf1-KRAS WT-GppNHP disruption HTRF assay (Biological Example 1); assay type: binding
# T4 construct: Avi-KRAS WT (1-169)
# Summary of the method: as §1
# [5] = KRAS G12V, GppNHp-loaded, class symbols
# [6] = KRAS G12D, GppNHp-loaded, class symbols
# [7] = KRAS G12R, GppNHp-loaded, class symbols
# [8] = KRAS WT, GppNHp-loaded, class symbols
# T3 sequence (P01116 1-169 isoform P01116-2 G12R): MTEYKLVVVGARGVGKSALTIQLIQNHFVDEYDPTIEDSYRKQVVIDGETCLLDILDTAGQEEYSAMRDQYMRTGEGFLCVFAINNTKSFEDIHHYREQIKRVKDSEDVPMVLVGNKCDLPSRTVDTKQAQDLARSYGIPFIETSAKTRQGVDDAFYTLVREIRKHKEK
# T4 sequence (P01116 1-169 isoform P01116-2): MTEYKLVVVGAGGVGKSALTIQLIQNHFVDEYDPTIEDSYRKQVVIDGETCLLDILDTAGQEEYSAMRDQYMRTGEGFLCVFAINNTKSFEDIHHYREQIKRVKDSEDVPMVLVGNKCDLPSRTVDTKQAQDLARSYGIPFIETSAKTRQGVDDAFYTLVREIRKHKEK
# T2 sequence (P01116 1-169 isoform P01116-2 G12D): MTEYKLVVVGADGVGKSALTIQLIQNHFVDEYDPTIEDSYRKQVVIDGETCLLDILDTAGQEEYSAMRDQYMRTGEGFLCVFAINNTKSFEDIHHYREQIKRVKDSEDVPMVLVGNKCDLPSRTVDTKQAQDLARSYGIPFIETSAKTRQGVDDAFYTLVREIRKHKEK
# T1 sequence (P01116 1-169 isoform P01116-2 G12V): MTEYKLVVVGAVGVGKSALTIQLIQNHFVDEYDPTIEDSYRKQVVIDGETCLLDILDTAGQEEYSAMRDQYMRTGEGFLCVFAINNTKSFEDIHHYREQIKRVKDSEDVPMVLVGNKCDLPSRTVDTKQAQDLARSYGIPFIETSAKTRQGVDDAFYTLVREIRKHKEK
IC50 ([1]; KRAS G12V-GppNHp/RAF1 RBD HTRF) [µM],IC50 ([2]; KRAS G12D-GppNHp/RAF1 RBD HTRF) [µM],IC50 (GP2d cells (KRAS G12D)) [µM],IC50 (SW620 cells (KRAS G12V)) [µM],IC50 ([3]; KRAS G12R-GppNHp/RAF1 RBD HTRF) [µM],IC50 ([4]; KRAS WT-GppNHp/RAF1 RBD HTRF) [µM],"IC50 [1, 5] [µM]","IC50 [2, 6] [µM]",IC50 (GP2d cells (KRAS G12D); class symbols) [µM],IC50 (SW620 cells (KRAS G12V); class symbols) [µM],"IC50 [3, 7] [µM]","IC50 [4, 8] [µM]",Compound
0.1 to 1,< 0.1,< 0.1,< 0.1,0.1 to 1,< 0.1,–,–,–,–,–,–,N#Cc1c(N)sc2c(F)ccc(-c3c(C(F)(F)F)cc4c(N5CCO[C@@H](CO)C5)nc(OC[C@@]56CCCN5C[C@H](F)C6)nc4c3F)c12 [Compound 282]
1 to 10,0.1 to 1,< 0.1,0.1 to 1,1 to 10,0.1 to 1,–,–,–,–,–,–,CC(C)C(=O)N1C[C@@H](N(C)c2nc(OC[C@@]34CCCN3C[C@H](F)C4)nc3c(F)c(-c4ccc(F)c5sc(N)c(C#N)c45)c(C(F)(F)F)cc23)C[C@H]1C [Compound 448]
–,–,–,–,–,–,< 0.1,< 0.1,< 0.1,< 0.1,< 0.1,< 0.1,"[2H]C1([2H])OC(=O)N2C[C@@H](N(CC)c3nc(OC[C@@]45CCCN4C[C@H](F)C5)nc4c(F)c(-c5ccc(F)c6sc(N)c(C#N)c56)c(C(F)(F)F)cc34)C[C@H]21 (atropisomer, axis not shown) [Compound 760]"
–,–,–,–,–,–,0.1 to 1,< 0.1,< 0.1,< 0.1,< 0.1,0.1 to 1,"CCN(c1nc(OC[C@@]23CCCN2C[C@H](F)C3)nc2c(F)c(-c3ccc(F)c4sc(N)c(C#N)c34)c(C(F)(F)F)cc12)[C@H]1CCN(C(=O)OC)[C@@H]1C (atropisomer, axis not shown) [Compound 688]"
0.1 to 1,0.1 to 1,< 0.1,< 0.1,0.1 to 1,0.1 to 1,–,–,–,–,–,–,N#Cc1c(N)sc2c(F)ccc(-c3c(C(F)(F)F)cc4c(N5CCO[C@@H]6C[C@@H]65)nc(OC[C@@]56CCCN5C[C@H](F)C6)nc4c3F)c12 [Compound 411]
–,–,–,–,–,–,< 0.1,< 0.1,< 0.1,< 0.1,< 0.1,< 0.1,"CCN(c1nc(OC[C@@]23CCCN2C[C@H](F)C3)nc2c(F)c(-c3ccc(F)c4sc(N)c(C#N)c34)c(C(F)(F)F)cc12)[C@H]1CCN(C(=O)[C@@H]2CC2(F)F)[C@@H]1C (atropisomer, axis not shown) [Compound 693]"
1 to 10,1 to 10,< 0.1,< 0.1,1 to 10,1 to 10,–,–,–,–,–,–,CC(C)C(=O)N1CC[C@@H]2[C@H]1CN2c1nc(OC[C@@]23CCCN2C[C@H](F)C3)nc2c(F)c(-c3ccc(F)c4sc(N)c(C#N)c34)c(C(F)(F)F)cc12 [Compound 536]
0.1 to 1,0.1 to 1,< 0.1,< 0.1,0.1 to 1,0.1 to 1,–,–,–,–,–,–,N#Cc1nnn2c1CN(c1nc(OC[C@@]34CCCN3C[C@H](F)C4)nc3c(F)c(-c4ccc(F)c5sc(N)c(C#N)c45)c(C(F)(F)F)cc13)CC2 [Compound 486]
–,–,–,–,–,–,0.1 to 1,0.1 to 1,< 0.1,< 0.1,0.1 to 1,0.1 to 1,"CCN(c1nc(OC[C@@]23CCCN2C[C@H](F)C3)nc2c(F)c(-c3ccc(F)c4sc(N)c(C#N)c34)c(C(F)(F)F)cc12)[C@H]1C[C@H](C)N(C(=O)[C@@H](C)OC)C1 (atropisomer, axis not shown) [Compound 747]"
–,–,–,–,–,–,0.1 to 1,0.1 to 1,< 0.1,< 0.1,0.1 to 1,0.1 to 1,"CCN(c1nc(OC[C@@]23CCCN2C[C@H](F)C3)nc2c(F)c(-c3ccc(F)c4sc(N)c(C#N)c34)c(C(F)(F)F)cc12)[C@@H]1C[C@@H](C)N(C(=O)C2COC2)C1 (atropisomer, axis not shown) [Compound 629]"
